Here are results for six molecules from ChEMBL document CHEMBL4699626, “Potential α-glucosidase inhibitor from Hylotelephium erythrostictum” (Bioorg Med Chem Lett, 2020).

The nature of assay [1]: Competitive inhibition of alpha-glucosidase (unknown origin) by Dixon plot analysis. More on the design: species or system Homo sapiens.
A short description of assay [2]: Inhibition of alpha-glucosidase (unknown origin) using p-nitrophenyl-alpha-D-glucopyranoside as substrate.
The species named for assay [3] is Homo sapiens. The assay is described as follows: Potency index, ratio of Acarbose IC50 to test compound IC50 for alpha-glucosidase (unknown origin).
The species named for assay [4] is Homo sapiens. The assay is described as follows: Competitive inhibition of alpha-glucosidase (unknown origin) assessed as increase in Km with constant Vmax by Lineweaver-Burk plot analysis.
The nature of assay [5]: Inhibition of alpha-glucosidase (unknown origin). Also noted: species or system Homo sapiens.
The nature of assay [6]: Inhibition of Saccharomyces cerevisiae alpha-glucosidase assessed as decrease in release of p-nitrophenol using pNPG as substrate preincubated for 2 hrs followed by substrate addition by spectrophotometric method.

One may read the Ki as a measure of affinity in units of concentration, obtained from inhibition or displacement. Low values mean tighter binding, high ones weaker binding. One may read the IC50 as the point on the concentration scale where inhibition reaches its midpoint.

Calls of active or inactive are those of the source. No cut-off for these calls is given here.

`COC1(c2ccc(O)c(O)c2)Oc2cc(O)cc(O)c2C1=O` (centres undefined) displayed a Ki in assay [1] of 0.709 µM. For the same molecule, in assay [2] (read-out: IC50), the IC50 came to 1.8 µM. In addition, the Ratio IC50 in the assay filed under Homo sapiens [3] amounted to 457. Moreover, in the assay filed under Homo sapiens [4], the inhibition entry is “Active”.
As to `COc1cc(O)c2c(=O)c(O)c(-c3ccc(O)cc3)oc2c1` [RHAMNOCITRIN], in assay [2] (read-out: IC50), the IC50 amounted to 731 µM.
In assay [5], `COc1ccc(-c2oc3cc(O)cc(O)c3c(=O)c2O)cc1` [KAEMPFERIDE] gave an IC50 of 647 µM.
`O=c1cc(-c2ccc(O)cc2)oc2cc(O)cc(O)c12` [APIGENIN]: in assay [6], the IC50 amounted to 365 µM.
With `COc1cc(OC)c2c(c1)OC(OC)(c1ccc(OC)c(OC)c1)C2=O` (centres undefined), in assay [2], the IC50 entry is listed as “Not Active”.
With `O=c1c(O)c(-c2ccc(O)cc2)oc2cc(O)cc(O)c12` [KAEMPFEROL], the IC50 in assay [2] (read-out: IC50) worked out at 420 µM.
